Values of other authors, collected in PubChem BioAssay AID1259409 (Chemical Carcinogenesis Research Information System (CCRIS), 2018).

Test system: rodent chemically induced tumor inhibition, incidence and multiplicity
Experiment: CCRIS tumor inhibitor studies
Settings: Species: MOUSE

SMILES: Cc1cc2nc3c(=O)[nH]c(=O)nc-3n(C[C@H](O)[C@H](O)[C@H](O)CO)c2cc1C
- tumour outcome (control, treated, inhibition, significance) (Carcinogen: 7,12-DIMETHYLBENZ[A]ANTHRACENE, 57-97-6, Dose [Inhibitor]: 2 MG IN DRINKING WATER DAILY STARTING 4 WK BEFORE CARCINOGEN TREATMENT AND CONTINUING FOR DURATION OF THE STUDY (STUDY D, Route [Inhibitor]: ORAL, Strain/Sex: 101/MALE, FEMALE, Target Tissue: Type of Lesion: SKIN: PAPILLOMA, Dose [Carcinogen]: 225 UG IN 0.15 ML ACETONE ONCE, Promoter: CROTON OIL, 8001-28-3): 17/19 (89%), 19/19 (100%), -12%, not calculated
- tumour outcome (control, treated, inhibition, significance) (Carcinogen: BENZO[A]PYRENE, 50-32-8, Dose [Inhibitor]: 0.2% IN DIET DAILY STARTING 4 WK BEFORE START OF CARCINOGEN TREATMENT AND CONTINUING FOR DURATION OF STUDY (STUDY DURATI, Route [Inhibitor]: ORAL, Strain/Sex: 101/MALE, FEMALE, Target Tissue: Type of Lesion: SKIN: TUMOR (BENIGN, MALIGNANT), Dose [Carcinogen]: 0.2 ML OF 0.025% SOLUTION IN ACETONE 2/WK FOR 23 WK STARTING 4 WK AFTER STAR OF AGENT TREATMENT, Promoter: NONE USED): 21/30 (70%), 25/28 (89%), -27%, not calculated
- tumour outcome (control, treated, inhibition, significance) (Carcinogen: BENZO[A]PYRENE, 50-32-8, Dose [Inhibitor]: 0.25 MG 2/WK FOR 24 WK STARTING 4 WK BEFORE START OF CARCINOGEN TREATMENT AN D CONTINUING FOR DURATION OF STUDY (STUDY D, Route [Inhibitor]: SUBCUTANEOUS, Strain/Sex: 101/MALE, FEMALE, Target Tissue: Type of Lesion: SKIN: MALIGNANT TUMOR, Dose [Carcinogen]: 0.2 ML OF 0.25% 2/WK FOR 20 WK, Promoter: NONE USED): 12/18 (67%), 8/19 (42%), 37%, not calculated
- tumour outcome (control, treated, inhibition, significance) (Carcinogen: BENZO[A]PYRENE, 50-32-8, Dose [Inhibitor]: 0.6% IN DIET DAILY STARTING 4 WK BEFORE START OF CARCINOGEN TREATMENT AND CONTINUING FOR DURATION OF STUDY (STUDY DURATI, Route [Inhibitor]: ORAL, Strain/Sex: 101/MALE, FEMALE, Target Tissue: Type of Lesion: SKIN: TUMOR (BENIGN, MALIGNANT), Dose [Carcinogen]: 0.2 ML OF 0.025% SOLUTION IN ACETONE 2/WK FOR 23 WK, Promoter: NONE USED): 21/30 (70%), 32/37 (86%), -23%, not calculated
- tumour outcome (control, treated, inhibition, significance) (Carcinogen: BENZO[A]PYRENE, 50-32-8, Dose [Inhibitor]: 2.5 MG 2/WK FOR 24 WK STARTING 4 WK BEFORE START OF CARCINOGEN TREATMENT AND CONTINUING FOR DURATION OF STUDY (STUDY DUR, Route [Inhibitor]: SUBCUTANEOUS, Strain/Sex: 101/MALE, FEMALE, Target Tissue: Type of Lesion: SKIN: PAPILLOMA, Dose [Carcinogen]: 0.2 ML OF 0.25% 2/WK FOR 20 WK, Promoter: NONE USED): 13/18 (72%), 8/19 (42%), 42%, not calculated
- tumour outcome (control, treated, inhibition, significance) (Carcinogen: UV IRRADIATION, Dose [Inhibitor]: 15 MG/ML DRINKING WATER DAILY FOR DURATION OF STUDY (STUDY DURATION: 11 MO), Route [Inhibitor]: ORAL, Strain/Sex: HR-HAIRLESS/MALE, Target Tissue: Type of Lesion: SKIN: SQUAMOUS CELL CARCINOMA, Dose [Carcinogen]: 5 MIN/D 6 D/WK FOR DURATION OF STUDY, Promoter: NONE USED): 6/6 (100%), 6/6 (100%), 0%, not significant
- tumour outcome (control, treated, inhibition, significance) (Carcinogen: UV IRRADIATION, Dose [Inhibitor]: 15 MG/ML PROPYLENE GLYCOL DAILY FOR DURATION OF STUDY (STUDY DURATION: 11 MO), Route [Inhibitor]: DERMAL, Strain/Sex: HR-HAIRLESS/MALE, Target Tissue: Type of Lesion: SKIN: SQUAMOUS CELL CARCINOMA, Dose [Carcinogen]: 5 MIN/D 6 D/WK FOR DURATION OF STUDY, Promoter: NONE USED): 6/6 (100%), 7/7 (100%), 0%, not significant
